Results published in patent publication US20110150980A1, “CGRP ANALOG” (VasoGenix Pharmaceuticals, Inc., priority 2009, published 2011).
Like-named read-outs stand apart in the source and are kept apart here. Bridges are numbered along the chain shown (N, C = ends). Where no end group is shown, it is not given here.

Legend:
patients = details: cited from earlier work
[1] = tested on: sedated Non Human Primate; assay: IV infusion in the sedated Non Human Primate: blood pressure and heart rate (Example 1); assay type: in vivo; details: at the 28 ng dose
CRLR/RAMP1 receptor [2] = target: T1, CRLR/RAMP1 receptor (Homo sapiens, UniProt O60894+Q16602); assay: CRE-luciferase assay in HEK293T cells transfected with CRLR and RAMP1; assay type: cell-based; details: for activity and potency in binding to the CGRP receptor, CRE-Luciferase assay: compared to h-α-CGRP and h-β-CGRP as controls
T1 construct: All of the full-length cDNAs were subcloned into pcDNA3.1 expression vectors; expressed in transfected cells; host or cells: HEK293T, transient calcium phosphate transfection, pcDNA3.1 vectors
Text: The expression vectors for RAMP1, RAMP2, RAMP3, CRLR, CRE-Luc and SRE-Luc were constructed as previously described (McLatchie L. M., et al. (1998) Nature 393:333-339). Human CRLR, RAMP1, and RAMP2 full-length cDNAs were cloned by RT-PCR using RNA obtained from HEK293T cells and CRLR, RAMP1, and RAMP2-specific primers. Human RAMP3 full-length cDNAs were cloned by RT-PCR using RNA from human kidney and RAMP3 specific primers. All of the full-length cDNAs were subcloned into pcDNA3.1 expression vectors.
Human embryonic kidney 293T cells (HEK293T) were maintained in Dulbecco's modified Eagle's medium supplemented with 10% fetal calf serum, 2 mM glutamine, […], at 37° C. in a humidified atmosphere of 95% air and 5% CO2. Transient transfections were performed using calcium phosphate co-precipitation (Mellon P. L., et al. (1981) Cell 27:279-288). Cells in six-well plates or 100-mm Petri dishes were grown to 70% confluence and transfected with 0.1 μg of DNA for CRLR, 0.05 μg for RAMPs or 1 μg for CRE-Luc and SRE-Luc per cm^2. The total amount of DNA transfected in each condition was kept constant by adding empty pcDNA3.1 vector when needed. Twenty hours after transfection, the medium was replaced with fresh medium containing 5 mM sodium butyrate for 24 h and then replaced for an additional 24 h with fresh medium without sodium butyrate. All of the experiments were performed 72 h after transfection to allow correct glycosylation and cell surface targeting of CRLR and RAMPs.
After exposure to various concentrations of CGRP or the CGRP analogs, the cells were lysed and assayed for CRE- or SRE-luciferase activity using the luciferase assay system (Promega), and luminescence was measured using a 96-well luminometer.
The mechanism of action for CGRP at the CRLR/RAMP1 receptor is known to up-regulate cAMP through the gs pathway, and to a lesser extent [Ca^2+] through the gq pathway. […] It is the cAMP pathway that is the primary mechanism of action of CGRP for vasodilation, cardio/renoprotection and immunomodulation.

CRLR/RAMP1 receptor [3] = target: CRLR/RAMP1 receptor (human, UniProt Q16602 23-461; O60894 27-148); assay: cell-based or functional assay
[4] = Anand et al.: short-term IV infusions (10 or 20 minutes) at 0.8, 3.2, or 16 ng/kg/min
[5] = Sekhar et al.: 8 ng/kg/min by IV infusion for 8 hours
[6] = Stephenson et al.: 600 ng/min, 2-8 hour infusions for two consecutive days

T1 sequence (Q16602 23-461): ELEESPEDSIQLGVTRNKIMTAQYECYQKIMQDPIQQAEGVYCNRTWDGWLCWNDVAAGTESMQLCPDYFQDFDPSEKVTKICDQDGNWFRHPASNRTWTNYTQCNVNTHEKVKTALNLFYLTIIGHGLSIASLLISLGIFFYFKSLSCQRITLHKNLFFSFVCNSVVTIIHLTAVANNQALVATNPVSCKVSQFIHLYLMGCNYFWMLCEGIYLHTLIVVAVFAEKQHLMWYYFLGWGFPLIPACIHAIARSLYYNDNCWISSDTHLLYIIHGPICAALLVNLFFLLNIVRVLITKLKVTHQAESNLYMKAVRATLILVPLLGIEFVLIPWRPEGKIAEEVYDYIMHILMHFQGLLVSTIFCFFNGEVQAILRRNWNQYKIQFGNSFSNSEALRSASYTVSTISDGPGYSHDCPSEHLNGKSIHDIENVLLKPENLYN
T1 sequence (O60894 27-148): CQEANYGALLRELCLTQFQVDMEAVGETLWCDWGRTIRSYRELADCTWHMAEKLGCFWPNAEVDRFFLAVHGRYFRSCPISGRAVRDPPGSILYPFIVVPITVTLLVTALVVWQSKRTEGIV
Chain of CRLR/RAMP1 receptor (human, UniProt Q16602 23-461; O60894 27-148) (Q16602 23-461, chain 1 of 2): as the sequence (Q16602 23-461) above
Chain of CRLR/RAMP1 receptor (human, UniProt Q16602 23-461; O60894 27-148) (O60894 27-148, chain 2 of 2): as the sequence (O60894 27-148) above

**Q.** What does the source list for CGRP?
**A.** hemodynamic effects (patients; [4]): beneficial hemodynamic effects such as decreased systemic vascular resistance and increase in cardiac output; tachycardia (patients; [4]): no tachycardia observed; renal blood flow and glomerular filtration (patients; Sekhar et al.: 8 ng/kg/min by IV infusion for 8 hours, during treatment): increased; hemodynamic effects (patients; [5]): beneficial hemodynamic effects such as decreased pulmonary and systemic arterial pressure, decreased vascular resistance and increased cardiac output; time after stopping infusion within which hemodynamic effects were lost (patients; [5]): ≤ 30 min; side effects of pulsed therapy (patients; [6]): unfavorable side effects of tachycardia and neurohumoral response were also observed; tolerability and hemodynamic functions, pulsed therapy (patients; [6]): well tolerated and was observed to improve hemodynamic functions such as left ventricular function; tolerability of continuous infusion therapy (patients; Stephenson et al.: 600 ng/min, 48-hour continuous IV-infusion): infusion was discontinued after 28 hours in 3 out of the 6 patients due to nausea, diarrhea, and/or severe facial flushing

**Q.** What does the source list for “Cyc-ACDTATCVTHRLADLLSRSGGVVKSNFVPTNVGSKAF-NH2 (disulfide 2-7 (inferred)) [Peptide IX]”?
**A.** Heart rate (HR) effect [1]: increased heart rate but less than CGRP; potency in CRE-Luciferase assay (CRLR/RAMP1 receptor [2]; at a concentration of 10^−10 molar): more potent; activity and potency in binding to the CGRP receptor, CRE-Luciferase assay (CRLR/RAMP1 receptor [2]): as equally active and potent as h-α-CGRP and h-β-CGRP

**Q.** For “Cyc-ACDTATCVTHRLAGLLSRSGGVVKSNFVPTNVGSKAF-NH2 (disulfide 2-7 (inferred)) [Peptide III]”, which “Heart rate (HR) effect” value [1] is on record?
**A.** Its value is “increased heart rate but less than CGRP”.

**Q.** What about the “activity and potency in binding to the CGRP receptor, CRE-Luciferase assay” value (CRLR/RAMP1 receptor [2]) of the same molecule?
**A.** The value was “as equally active and potent as h-α-CGRP and h-β-CGRP”.

**Q.** Which “CRE-Luciferase assay: concentration at which receptors were saturated” value (CRLR/RAMP1 receptor [3]) does the source give for ACDTATCVTHRLAGLLSRSGGVVKSNFVPTNVGSKAF-NH2 (disulfide 2-7 (inferred); also: acetate salt) [Peptide III, [Ser25] h-α-CGRP] here?
**A.** Its value is 100 nM.

**Q.** What does the source list for ACDTATCVTHRLADLLSRSGGVVKSNFVPTNVGSKAF-NH2 (disulfide 2-7 (inferred); also: acetate salt) [Peptide IX, [Asp14, Ser25] h-α-CGRP]?
**A.** CRE-Luciferase activity at 10^-10 molar, fold over analogs III and V, h-α-CGRP and h-β-CGRP (CRLR/RAMP1 receptor [3]): 1.5 fold; CRE-Luciferase assay: concentration at which receptors were saturated (CRLR/RAMP1 receptor [3]): 100 nM

**Q.** With ACNTATCVTHRLAGLLSRSGGVVKSNFVPTNVGSKAF-NH2 (disulfide 2-7 (inferred); also: acetate salt) [Peptide V, [Asn3, Ser25] h-α-CGRP] as the molecule, how does the “CRE-Luciferase assay: concentration at which receptors were saturated” value (CRLR/RAMP1 receptor [3]) read?
**A.** Its value is 100 nM.
